From PubChem BioAssay AID248 (DTP/NCI, 2004)
Values joined by “and” are separate entries in the source; they are usually repeats but may differ in a detail not shown here. Equal values may be shown once. Toxic doses and inconclusive results are not listed. Cut-off read from the data, not from the text of the source: active = T/C of 150% or more; inactive = T/C below 125%.

Tested on: L1210 leukemia ip in BDF1 mice, survival T/C
Experiment: NCI In Vivo Anticancer Drug Screen. Data for tumor model L1210 Leukemia (intraperitoneal) in B6D2F1 (BDF1) mice
Conditions: endpoint: mean survival time, higher = longer survival
In short: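 In this screen, tumor-bearing mice given compound are compared to those given vehicle, and their survival values are reported as a treated-to-control quotient.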

[1] = dose: 100.0 mg/kg/injection, schedule: Q04DX003 (ip), vehicle: Klucel (hydroxypropylcellulose) (HPC)
[2] = dose: 200.0 mg/kg/injection, schedule: Q04DX003 (ip), vehicle: Klucel (hydroxypropylcellulose) (HPC)
[3] = dose: 25.0 mg/kg/injection, schedule: Q04DX003 (ip), vehicle: saline with Tween-80
[4] = dose: 400.0 mg/kg/injection, schedule: Q04DX003 (ip), vehicle: Klucel (hydroxypropylcellulose) (HPC)
[5] = dose: 50.0 mg/kg/injection, schedule: Q01DX001 (ip), vehicle: saline
[6] = dose: 100.0 mg/kg/injection, schedule: Q01DX001 (ip), vehicle: saline
[7] = dose: 200.0 mg/kg/injection, schedule: Q01DX001 (ip), vehicle: saline
[8] = dose: 400.0 mg/kg/injection, schedule: Q01DX001 (ip), vehicle: saline

Measured: T/C

N#Cc1cnc(N)nc1N
inactive: dose: 50.0 mg/kg/injection, schedule: Q04DX003 (ip), vehicle: Klucel (hydroxypropylcellulose) (HPC) 113 % of control | dose: 75.0 mg/kg/injection, schedule: Q01DX001 (ip), vehicle: carboxymethylcellulose (CMC) 92 % of control | dose: 75.0 mg/kg/injection, schedule: Q01DX009 (ip), vehicle: Klucel (hydroxypropylcellulose) (HPC) 102 % of control | [1] 97 % of control | dose: 150.0 mg/kg/injection, schedule: Q01DX001 (ip), vehicle: carboxymethylcellulose (CMC) 92 % of control | dose: 150.0 mg/kg/injection, schedule: Q01DX009 (ip), vehicle: Klucel (hydroxypropylcellulose) (HPC) 102 % of control | [2] 108 % of control

N#CCC(C(=O)c1cccnc1)c1ccccc1 (stereo not given)
inactive: dose: 100.0 mg/kg/injection, schedule: Q04DX002 (ip), vehicle: gum acacia 104 % of control | dose: 200.0 mg/kg/injection, schedule: Q04DX002 (ip), vehicle: gum acacia 87 % of control

CCCCCOc1ccc(C(=O)/C(Br)=C/C(=O)O)cc1
inactive: dose: 12.5 mg/kg/injection, schedule: Q01DX009 (ip), vehicle: saline with Tween-80 98 % of control | dose: 25.0 mg/kg/injection, schedule: Q01DX009 (ip), vehicle: saline with Tween-80 96 % of control | dose: 50.0 mg/kg/injection, schedule: Q01DX009 (ip), vehicle: saline with Tween-80 101 % of control

OC(CN1CCCCC1)c1cccs1 (stereo not given)
inactive: dose: 6.25 mg/kg/injection, schedule: Q04DX003 (ip), vehicle: saline with Tween-80 94 % of control | dose: 12.5 mg/kg/injection, schedule: Q04DX003 (ip), vehicle: saline with Tween-80 97 % of control | [3] 94 % of control

CNC(CO)C1CCCCC1 (stereo not given)
inactive: dose: 75.0 mg/kg/injection, schedule: Q01DX001 (ip), vehicle: saline 100 % of control | dose: 150.0 mg/kg/injection, schedule: Q01DX001 (ip), vehicle: saline 102 % of control | dose: 300.0 mg/kg/injection, schedule: Q01DX001 (ip), vehicle: saline 101 % of control

Cc1cccc(N=P(c2ccccc2)(c2ccccc2)c2ccccc2)c1
inactive: dose: 50.0 mg/kg/injection, schedule: Q01DX009 (ip), vehicle: Klucel (hydroxypropylcellulose) (HPC) 96 % of control | dose: 100.0 mg/kg/injection, schedule: Q01DX009 (ip), vehicle: Klucel (hydroxypropylcellulose) (HPC) 88 % of control | [1] 95 % of control | [2] 96 % of control

C[C@H]1CN1C1=CC(=O)C(N2C[C@@H]2C)=CC1=O
active: dose: 5.0 mg/kg/injection, schedule: Q01DX009 (ip), vehicle: other 166 % of control
inactive: dose: 0.88 mg/kg/injection, schedule: Q04DX003 (ip), vehicle: other 106 % of control | dose: 1.0 mg/kg/injection, schedule: Q01DX001 (ip), vehicle: other 108 % of control | dose: 1.56 mg/kg/injection, schedule: Q01DX009 (ip), vehicle: other 120 % of control | dose: 2.0 mg/kg/injection, schedule: Q01DX001 (ip), vehicle: other 105 % of control | dose: 2.0 mg/kg/injection, schedule: Q04DX003 (ip), vehicle: Klucel (hydroxypropylcellulose) (HPC) 108 % of control | dose: 2.0 mg/kg/injection, schedule: Q04DX003 (ip), vehicle: other 120 % of control | dose: 4.0 mg/kg/injection, schedule: Q04DX003 (ip), vehicle: Klucel (hydroxypropylcellulose) (HPC) 117 % of control | dose: 8.0 mg/kg/injection, schedule: Q04DX003 (ip), vehicle: Klucel (hydroxypropylcellulose) (HPC) 124 % of control | dose: 9.0 mg/kg/injection, schedule: Q04DX003 (ip), vehicle: saline with Tween-80 95 % of control | dose: 9.5 mg/kg/injection, schedule: Q01DX001 (ip), vehicle: other 114 % of control | dose: 12.0 mg/kg/injection, schedule: Q01DX009 (ip), vehicle: other 92 % of control | [3] 105 % of control

Cc1cc(Cl)c2ccccc2[n+]1C
inactive: dose: 100.0 mg/kg/injection, schedule: Q04DX003 (ip), vehicle: saline 98 % of control

CC(=O)Oc1ccc(N2C(=O)C=CC2=O)cc1
inactive: dose: 3.12 mg/kg/injection, schedule: Q01DX009 (ip), vehicle: Klucel (hydroxypropylcellulose) (HPC) 97 % of control | dose: 6.25 mg/kg/injection, schedule: Q01DX009 (ip), vehicle: Klucel (hydroxypropylcellulose) (HPC) 96 % of control | dose: 12.5 mg/kg/injection, schedule: Q01DX009 (ip), vehicle: Klucel (hydroxypropylcellulose) (HPC) 100 % of control | dose: 25.0 mg/kg/injection, schedule: Q04DX003 (ip), vehicle: Klucel (hydroxypropylcellulose) (HPC) 118 % of control

C[N+](C)(C)CCCBr
inactive: dose: 10.0 mg/kg/injection, schedule: Q01DX001 (ip), vehicle: saline 112 % of control | dose: 20.0 mg/kg/injection, schedule: Q01DX001 (ip), vehicle: saline 89 % of control

O=C1C2C(=C3CCCCC3)C=CC2C1(c1ccccc1)c1ccccc1 (stereo not given)
inactive: [1] 101 % of control | [2] 95 % of control | [4] 94 % of control

OCC(O)C(O)C(O)C(O)C(c1ccc(Br)cc1)c1ccc(Br)cc1 (stereo not given)
inactive: [5] 106 % of control | [6] 106 % of control | [7] 101 % of control | [8] 98 % of control

Nc1ncnc2c1nnn2C1CC2COP(=O)(O)OC2C1O (stereo not given)
inactive: dose: 44.0 mg/kg/injection, schedule: Q01DX007 (ip), vehicle: saline with Tween-80 103 % of control | dose: 67.0 mg/kg/injection, schedule: Q01DX007 (ip), vehicle: saline with Tween-80 114 % of control | dose: 100.0 mg/kg/injection, schedule: Q01DX007 (ip), vehicle: saline with Tween-80 101 % of control

NCCNCCN
inactive: [5] 102 % of control | [6] 116 % of control | [7] 104 % of control | [8] 108 % of control

CCCCOC(N)=O
inactive: [5] 105 % of control | [6] 95 % of control | dose: 100.0 mg/kg/injection, schedule: Q04DX003 (ip), vehicle: saline with Tween-80 95 % of control and 100 % of control | [7] 93 % of control | dose: 200.0 mg/kg/injection, schedule: Q04DX003 (ip), vehicle: saline with Tween-80 95 % of control and 97 % of control | [8] 98 % of control | dose: 400.0 mg/kg/injection, schedule: Q04DX003 (ip), vehicle: saline with Tween-80 97 % of control and 102 % of control

CCCCCCCCCCCCCCCCC1(c2ccccc2)NC(=O)NC1=O (stereo not given)
inactive: [1] 93 % of control | [2] 95 % of control | [4] 98 % of control

O=C(NCc1ccncc1)Nc1ccccc1
inactive: dose: 100.0 mg/kg/injection, schedule: Q04DX002 (ip), vehicle: Klucel (hydroxypropylcellulose) (HPC) 103 % of control | dose: 200.0 mg/kg/injection, schedule: Q04DX002 (ip), vehicle: Klucel (hydroxypropylcellulose) (HPC) 103 % of control | dose: 400.0 mg/kg/injection, schedule: Q04DX002 (ip), vehicle: Klucel (hydroxypropylcellulose) (HPC) 106 % of control

O=[N+]([O-])c1ccc(N/N=C\c2ccc(OCCOCCCl)cc2)c([N+](=O)[O-])c1
inactive: dose: 25.0 mg/kg/injection, schedule: Q01DX001 (ip), vehicle: saline with Tween-80 94 % of control | dose: 50.0 mg/kg/injection, schedule: Q01DX001 (ip), vehicle: saline with Tween-80 86 % of control | dose: 100.0 mg/kg/injection, schedule: Q01DX001 (ip), vehicle: saline with Tween-80 94 % of control and 92 % of control

CNC(=O)Nc1cccc(OC(=O)NC(C)(C)C)c1
inactive: dose: 100.0 mg/kg/injection, schedule: Q01DX009 (ip), vehicle: saline with Tween-80 91 % of control | dose: 200.0 mg/kg/injection, schedule: Q01DX009 (ip), vehicle: saline with Tween-80 93 % of control

C[N+](C)(C)CCOc1ccccc1Cc1ccccc1
inactive: dose: 1.56 mg/kg/injection, schedule: Q01DX003 (ip), vehicle: saline 96 % of control | dose: 3.12 mg/kg/injection, schedule: Q01DX003 (ip), vehicle: saline 100 % of control | dose: 3.12 mg/kg/injection, schedule: Q01DX009 (ip), vehicle: saline 96 % of control and 100 % of control | dose: 6.25 mg/kg/injection, schedule: Q01DX003 (ip), vehicle: saline 96 % of control | dose: 6.25 mg/kg/injection, schedule: Q01DX009 (ip), vehicle: saline 106 % of control | dose: 12.5 mg/kg/injection, schedule: Q01DX009 (ip), vehicle: saline 105 % of control and 89 % of control | dose: 12.5 mg/kg/injection, schedule: Q04DX003 (ip), vehicle: saline 111 % of control

CC(=O)O[C@H]1CC[C@@]2(C)C(=CC[C@H]3[C@@H]4C[C@@H](N5CC5)[C@H](C(C)=O)[C@@]4(C)CC[C@@H]32)C1
inactive: dose: 50.0 mg/kg/injection, schedule: Q01DX001 (sc), vehicle: steriod suspending solution 100 % of control | dose: 100.0 mg/kg/injection, schedule: Q01DX001 (sc), vehicle: steriod suspending solution 102 % of control | dose: 200.0 mg/kg/injection, schedule: Q01DX001 (sc), vehicle: steriod suspending solution 107 % of control | dose: 400.0 mg/kg/injection, schedule: Q01DX001 (sc), vehicle: steriod suspending solution 117 % of control
